In patent US6838096B2, “Black soybean polysaccharides” (Taipei Veterans General Hospital, priority 2001, dated 2005):

Key:
BALB/c mice = test: Myelopoietic activity in 5-FU-treated BALB/c mice with or without CT26 tumor implantation; type: in vivo; settings: 5-FU 150 mg/kg i.p.
Procedure: BALB/c mice (6-10 weeks old, 20±5 g) were obtained and kept in specific pathogen-free conditions with a controlled temperature and humidity, under a 12-h light/dark cycle, and given free access to food and water. All experiments were performed in accordance with the guidelines provided in the NIH Guide for the Care and Use of Laboratory Animals (DHHS publication No. NIH 85-23, revised 1996). CT26 murine colon adenocarcinoma and BALB/c syngenic were maintained in RPMI 1640 medium (Life technology, Grand Island, N.Y.) supplemented with 10% heat-inactivated FCS (HyClone, Logan, Utah) and 2 mM L-glutamine (Sigma, St. Louis, Mo.), and cultured at 37° C. in a humidified atmosphere containing 5% CO2. These cells were subcutaneously implanted into left flank of BALB/c mice.
For non-tumor implanted experiments, 5-FU (150 mg/kg body weight) was intraperitoneally (i.p.) injected into BALB/c mice on day 0, and PSBS (100 or 400 mg/kg body weight) was given by oral or interperitoneal administration daily once for 5 consecutive days 6 h after 5-FU injection. Mice in control group received normal saline at the same time. While in tumor-implanted model, 1×10^6 CT26 tumor cells in PBS per mouse was s.c. injected in the left flank of mice. […]

O=c1[nH]cc(F)c(=O)[nH]1 [5-FU, 5-fluorouracil]
CFU-GM colony numbers (5-FU-treated mice; 5-FU alone, single dose 150 mg/kg i.p., day 11): 41±5 colonies
myelosuppression (5-FU-treated mice; mouse, in vivo, ip, 150 mg/kg): apparent myelosuppression
number of leukocytes (5-FU-treated mice; mouse, in vivo, ip, 150 mg/kg): significantly decreased
number of leukocytes (BALB/c mice): significantly reduced
